Results published in BindingDB's records for doi:10.1016/s0960-894x(03)00295-6 (Rensselaer Polytechnic Institute, 2003).

Assay: Binding affinity was determined towards Opioid receptor delta 1 using [3H]naltrindole as radioligand

Going from `CC1[C@H]2Cc3ccc(NC=O)cc3[C@]1(C)CCN2CC1CC1` (stereo partly drawn) [(1R,9R,13R)-10-(cyclopropylmethyl)-1,13-dimethyl-10-azatricyclo[7.3.1.0~2,7~]trideca-2,4,6-trien-4-ylformamide] to `C[C@H]1C2Cc3ccc(NC=O)cc3[C@@]1(C)CCN2CC1CC1` [N-((6S,11R)-3-Cyclopropylmethyl-6,11-dimethyl-1,2,3,4,5,6-hexahydro-2,6-methano-benzo[d]azocin-8-yl)-formamide], the Ki rises from 9.8 nM to 37 nM (3.8-fold).

Going from `Nc1ccc2c3c1O[C@H]1C(=O)CC[C@@]4(O)[C@@H](C2)N(CC2CC2)CC[C@]314` [10-amino-4-cyclopropylmethyl-17-hydroxy-(1S,5R,13R,17S)-12-oxa-4-azapentacyclo[9.6.1.01,13.05,17.07,18]octadeca-7(18),8,10-trien-14-one] to `O=CNc1ccc2c3c1O[C@H]1C(=O)CC[C@@]4(O)[C@@H](C2)N(CC2CC2)CC[C@]314` [N-[4-cyclopropylmethyl-17-hydroxy-14-oxo-(1S,5R,17S)-12-oxa-4-azapentacyclo[9.6.1.01,13.05,17.07,18]octadeca-7(18),8,10-trien-10-yl]methanamide], the Ki falls from 880 nM to 420 nM (2.1-fold). The second binds more tightly here.

Going from `CC(=O)Nc1ccc2c(c1)[C@@]1(C)CCN(CC3CC3)C(C2)[C@@H]1C` [N-((6S,11R)-3-Cyclopropylmethyl-6,11-dimethyl-1,2,3,4,5,6-hexahydro-2,6-methano-benzo[d]azocin-8-yl)-acetamide] to `C[C@@H]1C2Cc3ccc(NC=O)cc3[C@]1(C)CCN2CC1CC1` [(1S,9S,13S)-10-(cyclopropylmethyl)-1,13-dimethyl-10-azatricyclo[7.3.1.0~2,7~]trideca-2,4,6-trien-4-ylformamide], the Ki rises from 1700 nM to > 10000 nM.

First: CC[C@@]12CCN(CC3CC3)C(C(=O)c3ccc(NC=O)cc31)[C@@H]2C [N-((6S,11R)-3-Cyclopropylmethyl-6-ethyl-11-methyl-1-oxo-1,2,3,4,5,6-hexahydro-2,6-methano-benzo[d]azocin-8-yl)-formamide]
Second: C[C@H]1C2Cc3ccc(N(C)C=O)cc3[C@@]1(C)CCN2CC1CC1 [N-((6S,11R)-3-Cyclopropylmethyl-6,11-dimethyl-1,2,3,4,5,6-hexahydro-2,6-methano-benzo[d]azocin-8-yl)-N-methyl-formamide]
The Ki of the first is 120-fold lower: 52 nM for the first, 6200 nM for the second. The first binds more tightly here.

For `C[C@H]1C2Cc3ccc(NC(=O)c4ccccc4)cc3[C@@]1(C)CCN2CC1CC1` [N-((6S,11R)-3-Cyclopropylmethyl-6,11-dimethyl-1,2,3,4,5,6-hexahydro-2,6-methano-benzo[d]azocin-8-yl)-benzamide], the Ki was 2400 nM.
